Tested on: 186277-243-T-J2-PDC complex spheroid viability
Experiment: Anticancer human tumor 186277-243-T-J2-PDC patient-derived colon adenocarcinoma cell line growth inhibition [POLQ]
Settings: for IC50: curve of first compound; for viability, T/C: stronger effect = lower value
Summary of the method: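 PDC + HUVEC + MSC complex spheroids; POLQ inhibitors ± partner drugs; top conc. at/near clinical Cmax, else 10 microM (SN-38 1 microM), half-log dilutions; 37 degrees C, 5% CO2.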

[1] = second compound 0.0316 µM, first compound 0.0316 µM
[2] = second compound 0.0316 µM, first compound 0.1 µM
[3] = second compound 0.0316 µM, first compound 0.316 µM
[4] = second compound 0.0316 µM, first compound 1 µM
[5] = second compound 0.0316 µM, first compound 3.16 µM
[6] = second compound 0.0316 µM, first compound 10 µM
[7] = second compound 0.1 µM, first compound 0.0316 µM
[8] = second compound 0.1 µM, first compound 0.1 µM
[9] = second compound 0.1 µM, first compound 0.316 µM
[10] = second compound 0.1 µM, first compound 1 µM
[11] = second compound 0.1 µM, first compound 3.16 µM
[12] = second compound 0.1 µM, first compound 10 µM
[13] = second compound 0.316 µM, first compound 0.0316 µM
[14] = second compound 0.316 µM, first compound 0.1 µM
[15] = second compound 0.316 µM, first compound 0.316 µM
[16] = second compound 0.316 µM, first compound 1 µM
[17] = second compound 0.316 µM, first compound 3.16 µM
[18] = second compound 0.316 µM, first compound 10 µM
[19] = second compound 1 µM, first compound 0.0316 µM
[20] = second compound 1 µM, first compound 0.1 µM
[21] = second compound 1 µM, first compound 0.316 µM
[22] = second compound 1 µM, first compound 1 µM
[23] = second compound 1 µM, first compound 3.16 µM
[24] = second compound 1 µM, first compound 10 µM
[25] = second compound 3.16 µM, first compound 0.0316 µM
[26] = second compound 3.16 µM, first compound 0.1 µM
[27] = second compound 3.16 µM, first compound 0.316 µM
[28] = second compound 3.16 µM, first compound 1 µM
[29] = second compound 3.16 µM, first compound 3.16 µM
[30] = second compound 3.16 µM, first compound 10 µM
[31] = second compound 10 µM, first compound 0.0316 µM
[32] = second compound 10 µM, first compound 0.1 µM
[33] = second compound 10 µM, first compound 0.316 µM
[34] = second compound 10 µM, first compound 1 µM
[35] = second compound 10 µM, first compound 3.16 µM
[36] = second compound 10 µM, first compound 10 µM
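Further: spheroids exposed to compounds for seven days.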
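Wherever viability, T/C is given: 100% = DMSO vehicle control viability.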

With `COc1cc2cc(C(=O)CCC(=O)O)sc2cc1OC` + COC1C(OC(N)=O)C(O)C(Oc2ccc3c(O)c(NC(=O)c4ccc(O)c(CC=C(C)C)c4)c(=O)oc3c2C)OC1(C)C the IC50 (second compound 0.0316 µM) was over 10 µM, the IC50 (second compound 0.1 µM) was over 10 µM and the IC50 (second compound 0.316 µM) was over 10 µM. It also gave an IC50 (second compound 1 µM) of over 10 µM, an IC50 (second compound 3.16 µM) of over 10 µM and an IC50 (second compound 10 µM) of over 10 µM. It also gave a viability, T/C [1] of 110%, a viability, T/C [2] of 99.3% and a viability, T/C [3] of 101%. The viability, T/C [4] was 99.2%, the viability, T/C [5] was 106% and the viability, T/C [6] was 96.6%. The viability, T/C [7] was 98.3%, the viability, T/C [8] was 88% and the viability, T/C [9] was 103%. The viability, T/C [10] was 101%, the viability, T/C [11] was 103% and the viability, T/C [12] was 103%. It also gave a viability, T/C [13] of 102%, a viability, T/C [14] of 102% and a viability, T/C [15] of 93.6%. It also gave a viability, T/C [16] of 99.5%, a viability, T/C [17] of 98.1% and a viability, T/C [18] of 120%. For the same compound, the viability, T/C [19] was 111%, the viability, T/C [20] was 99.1% and the viability, T/C [21] was 109%. The viability, T/C [22] was 106%, the viability, T/C [23] was 110% and the viability, T/C [24] was 103%. The viability, T/C [25] was 89.5%, the viability, T/C [26] was 108% and the viability, T/C [27] was 100%. The viability, T/C [28] was 98.9%, the viability, T/C [29] was 105% and the viability, T/C [30] was 114%. For the same compound, the viability, T/C [31] was 106%, the viability, T/C [32] was 111% and the viability, T/C [33] was 110%. The viability, T/C [34] was 117%, the viability, T/C [35] was 105% and the viability, T/C [36] was 101%.

In the case of `CCc1cc2c(N3CCc4c(cc(Cn5ccnc5)cc4-c4cn(C)nc4C(F)(F)F)C3=O)cc(C)nc2c(OC)n1` + Cc1cccc(N(C)C(=O)C2C(O)CCN2c2nc(C)cc(C(F)(F)F)c2C#N)c1, the IC50 (second compound 0.0316 µM) is reported as over 10 µM, the IC50 (second compound 0.1 µM) is reported as over 10 µM and the IC50 (second compound 0.316 µM) is reported as over 10 µM. For the same compound, the IC50 (second compound 1 µM) was over 10 µM, the IC50 (second compound 3.16 µM) was over 10 µM and the IC50 (second compound 10 µM) was over 10 µM. The viability, T/C [1] was 111%, the viability, T/C [2] was 86.9% and the viability, T/C [3] was 98.8%. The viability, T/C [4] was 97.1%, the viability, T/C [5] was 93.9% and the viability, T/C [6] was 95.2%. The viability, T/C [7] was 90.8%, the viability, T/C [8] was 91.3% and the viability, T/C [9] was 96.8%. For the same compound, the viability, T/C [10] was 99.4%, the viability, T/C [11] was 112% and the viability, T/C [12] was 83.2%. The viability, T/C [13] was 97%, the viability, T/C [14] was 101% and the viability, T/C [15] was 101%. The viability, T/C [16] was 114%, the viability, T/C [17] was 116% and the viability, T/C [18] was 92.5%. It also gave a viability, T/C [19] of 99.4%, a viability, T/C [20] of 96.9% and a viability, T/C [21] of 107%. It also gave a viability, T/C [22] of 111%, a viability, T/C [23] of 115% and a viability, T/C [24] of 83.4%. The viability, T/C [25] was 108%, the viability, T/C [26] was 104% and the viability, T/C [27] was 88.6%. It also gave a viability, T/C [28] of 113%, a viability, T/C [29] of 94.1% and a viability, T/C [30] of 92.9%. It also gave a viability, T/C [31] of 101%, a viability, T/C [32] of 110% and a viability, T/C [33] of 107%. The viability, T/C [34] was 103%, the viability, T/C [35] was 104% and the viability, T/C [36] was 97.9%.

`CC(C)n1c(=O)n(C)c2cnc3cc(F)c(-c4ccc(OCCCN5CCCCC5)nc4)cc3c21` + Nc1ccc(C#CCN(C(=O)Cc2ncc(C(F)(F)F)cc2C(F)(F)F)c2ccc(F)cc2)nn1 was tested, and the IC50 (second compound 0.0316 µM) was over 10 µM, the IC50 (second compound 0.1 µM) was over 10 µM and the IC50 (second compound 0.316 µM) was over 10 µM. It also gave an IC50 (second compound 1 µM) of over 10 µM, an IC50 (second compound 3.16 µM) of over 10 µM and an IC50 (second compound 10 µM) of over 10 µM. For the same compound, the viability, T/C [1] was 92.8%, the viability, T/C [2] was 94% and the viability, T/C [3] was 98.2%. The viability, T/C [4] was 95.6%, the viability, T/C [5] was 105% and the viability, T/C [6] was 108%. It also gave a viability, T/C [7] of 95.3%, a viability, T/C [8] of 112% and a viability, T/C [9] of 104%. It also gave a viability, T/C [10] of 102%, a viability, T/C [11] of 98.2% and a viability, T/C [12] of 105%. It also gave a viability, T/C [13] of 92.7%, a viability, T/C [14] of 90.4% and a viability, T/C [15] of 127%. It also gave a viability, T/C [16] of 102%, a viability, T/C [17] of 114% and a viability, T/C [18] of 109%. For the same compound, the viability, T/C [19] was 98.8%, the viability, T/C [20] was 112% and the viability, T/C [21] was 114%. For the same compound, the viability, T/C [22] was 99.1%, the viability, T/C [23] was 113% and the viability, T/C [24] was 113%. The viability, T/C [25] was 91.7%, the viability, T/C [26] was 98.3% and the viability, T/C [27] was 109%. For the same compound, the viability, T/C [28] was 102%, the viability, T/C [29] was 119% and the viability, T/C [30] was 105%. The viability, T/C [31] was 85.7%, the viability, T/C [32] was 95.4% and the viability, T/C [33] was 98.7%. It also gave a viability, T/C [34] of 91.8%, a viability, T/C [35] of 105% and a viability, T/C [36] of 102%.

Compound `CCc1c2c(nc3ccc(O)cc13)-c1cc3c(c(=O)n1C2)COC(=O)[C@]3(O)CC` + COC1C(OC(N)=O)C(O)C(Oc2ccc3c(O)c(NC(=O)c4ccc(O)c(CC=C(C)C)c4)c(=O)oc3c2C)OC1(C)C has an IC50 (second compound 0.0316 µM) of 0.00667 µM, an IC50 (second compound 0.1 µM) of 0.00631 µM and an IC50 (second compound 0.316 µM) of 0.00622 µM. The IC50 (second compound 1 µM) was 0.00581 µM, the IC50 (second compound 3.16 µM) was 0.00406 µM and the IC50 (second compound 10 µM) was 0.0042 µM. For the same compound, the viability, T/C (second compound 0.0316 µM, first compound 0.00316 µM) was 60.8%, the viability, T/C (second compound 0.0316 µM, first compound 0.01 µM) was 44.3% and the viability, T/C [1] was 21.4%. The viability, T/C [2] was 11.2%, the viability, T/C [3] was 8.38% and the viability, T/C [4] was 6.45%. For the same compound, the viability, T/C (second compound 0.1 µM, first compound 0.00316 µM) was 65%, the viability, T/C (second compound 0.1 µM, first compound 0.01 µM) was 39.7% and the viability, T/C [7] was 21.9%. For the same compound, the viability, T/C [8] was 10.4%, the viability, T/C [9] was 8.32% and the viability, T/C [10] was 6.78%. The viability, T/C (second compound 0.316 µM, first compound 0.00316 µM) was 61.1%, the viability, T/C (second compound 0.316 µM, first compound 0.01 µM) was 42% and the viability, T/C [13] was 22.4%. The viability, T/C [14] was 10.3%, the viability, T/C [15] was 7.76% and the viability, T/C [16] was 6.8%. For the same compound, the viability, T/C (second compound 1 µM, first compound 0.00316 µM) was 61.8%, the viability, T/C (second compound 1 µM, first compound 0.01 µM) was 39.2% and the viability, T/C [19] was 21.6%. The viability, T/C [20] was 10.2%, the viability, T/C [21] was 8.22% and the viability, T/C [22] was 6.39%. The viability, T/C (second compound 3.16 µM, first compound 0.00316 µM) was 53.1%, the viability, T/C (second compound 3.16 µM, first compound 0.01 µM) was 38.8% and the viability, T/C [25] was 19.7%. For the same compound, the viability, T/C [26] was 9.79%, the viability, T/C [27] was 7.9% and the viability, T/C [28] was 6.76%. It also gave a viability, T/C (second compound 10 µM, first compound 0.00316 µM) of 52.9%, a viability, T/C (second compound 10 µM, first compound 0.01 µM) of 41.4% and a viability, T/C [31] of 19%. The viability, T/C [32] was 8.88%, the viability, T/C [33] was 8.76% and the viability, T/C [34] was 6.74%.

Source: PubChem BioAssay AID1963854 (Molecular Pharmacology Branch, DTP, NCI, 2024)
